# In patent US20240415791A1, “Therapeutic methods and compositions for treating cancer using devimistat and a fatty acid oxidation inhibitor, a tyrosine kinase inhibitor, a glutaminase inhibitor, and/or a glycolysis inhibitor” (Cornerstone Pharmaceuticals, Inc., priority 2021, published 2024):
# Like-named read-outs stand apart in the source and are kept apart here.
# Assays:
# AsPC1 cells [1] = assay: Acute ATP synthesis rescue by exogenous carbon sources in AsPC1 cells treated with devimistat and GPi; type: cell-based, human; conditions: for inhibition of oleic acid (OA)-driven acute ATP synthesis / OA rescue / OA rescue blockade: 50 μM oleic acid; for OA rescue blockade: acute ATP synthesis, 50 μM GPi
# AsPC1 cells [2] = assay: Devimistat-induced cell death (ATP after recovery) in AsPC1 cells; type: cell-based, human; conditions: for sensitization to devimistat-induced cell death, agent combined with devimistat: AsPC1, nutrient-free CBS2, treatment followed by recovery in serum-free RPMI; for Devimistat synergy: devimistat-induced cell death, no exogenous carbon, 15 hours treatment then recovery
# Experimental: Cells were plated at 80% confluency in complete RPMI in black, clear bottom 96-well plates or 35-mm dishes for ATP, protein and glycogen analysis, or glass coverslips for fluorescence visualization. […] Prior to drug treatment, cells were incubated in a nutrient-free carbonate buffered salt solution (CBS2) for 3 hours. Drug treatments were then carried out in CBS2 with addition of nutrient sources and/or chemical agents as described in the Examples and Figures.
# (§1) LOGIC: High throughput, plate reader assays for cell death essentially always ultimately depend on metabolic activity of cells to identify viability, directly or indirectly. Thus, strong inhibition of metabolic activity by anti-metabolism agents like those described herein can confound cell death analysis by such assays. […] The inventors thus used a recovery-based assay wherein cells are treated with anti-metabolic agents under conditions where mitochondrial metabolism is (or becomes) limiting on viability. After experimental treatment, drug and media are removed and cells are allowed to recover in serum-free RPMI. RPMI provides high levels of glucose in support of glycolytic ATP generation (independently of mitochondrial function), allowing viable cells to recover ATP levels that are ultimately measured in the plate assay to score cell viability.
# Survival is assessed by conventional luminescence measurement of ATP levels after this recovery.
# TECHNICAL DETAILS: Immediately after drug treatments, acute ATP levels of cells in black, clear bottom 96-well plates were measured using the CellTiter-Glo® Luminescent Cell Viability Assay (catalog #G775B) following Promega (Madison, WI) protocols. […] After this recovery period ATP levels were measured using the CellTiter-Glo® Luminescent Cell Viability Assay as described above.
# Survival is assessed by conventional luminescence measurement of ATP levels after this recovery. See the Methods section above for a detailed description of this assay and its validation.
# PANC1 cells [3] = assay: Devimistat-induced cell death (ATP after recovery) in PANC1 cells; type: cell-based, human; conditions: PANC1, nutrient-free CBS2, treatment followed by recovery in serum-free RPMI
# Experimental: Cells were plated at 80% confluency in complete RPMI in black, clear bottom 96-well plates or 35-mm dishes for ATP, protein and glycogen analysis, or glass coverslips for fluorescence visualization. To create low nutritional conditions, cells were seeded in complete media, after 24 hours cells were transferred to serum free RPMI for 18-24 hours. Prior to drug treatment, cells were incubated in a nutrient-free carbonate buffered salt solution (CBS2) for 3 hours. Drug treatments were then carried out in CBS2 with addition of nutrient sources and/or chemical agents as described in the Examples and Figures.
# as §1, with “cell viability. Under these conditions, cells that are committed to execution of cell death by the experimental treatment score as dead and cells that have not committed to cell death recover ATP levels and score as viable.” for “cell viability.”
# Specifically, after exposure to the treatments indicated, cells are allowed to recover ([…]) in RPMI without serum. Survival is assessed by conventional luminescence measurement of ATP levels after this recovery.
# TECHNICAL DETAILS: Immediately after drug treatments, acute ATP levels of cells in black, clear bottom 96-well plates were measured using the CellTiter-Glo® Luminescent Cell Viability Assay (catalog #G775B) following Promega (Madison, WI) protocols. To assess cell viability, after drug treatments, drug/agent-containing medium was replaced with serum-free RPMI and cells were incubated for an additional 17-24 hours to allow recovery of viable cells, without additional cell division. After this recovery period ATP levels were measured using the CellTiter-Glo® Luminescent Cell Viability Assay as described above.
# A. Exogenous glucose protects from devimistat-induced cell death. Four different cell lines were exposed for 15 hours (PANC1, AsPC1, H460) or 8 hours (PC3) to the indicated range of devimistat doses in the absence of exogenous nutrients (in carbonate buffered balanced salts solution, CBS2) after 3 hours of preincubation in CBS2 (for cell adaptation and to equilibrate soluble nutrient pools). Cells were exposed to the treatments indicated, followed by recovery (24 hours) in RPMI without serum (providing nutrient support for viable cell recovery, without serum factors for cell division). Survival is assessed by conventional luminescence measurement of ATP levels after this recovery. […] The relatively large quantitative differences in devimistat sensitivity between cell lines under exogenous nutrient deprivation are characteristic of each line (see examples below), with small experiment-to-experiment variation. […]
# AsPC1 cells [4] = assay: Glycogen content in AsPC1 cells; type: cell-based, human; conditions: AsPC1, CBS2, 3 hours
# Experimental: (§2) Glycogen was quantified using the Glycogen Assay Kit II (colorimetric) from AbCam (ab169558) according to manufacturer's instructions. Briefly, approximately 2×10^6 cells were washed with ice-cold PBS and collected via scraping in 300 μL ice-cold ddH2O. Cells were immediately sonicated on ice for 5× […] pulses with a probe sonicator (Misonix Inc, model XL2000), then heated to 80° C. for 10 min. Samples were stored O/N at −20° C., then thawed, centrifuged at 12,000×g for 10 min and the supernatants collected for glycogen hydrolysis and quantification according to manufacturer's instructions.
# C. […] Cells were treated in CBS2 for 3 hours with 30 μM devimistat or mock treated (FIG. 2C, left), or treated for 3 hours with the indicated devimistat doses (FIG. 2C, right).
# (§3) D. Effects of anti-metabolism agents on glycogen consumption in PANC1 and AsPC1 cells. […] Glycogen content was measured in cell lysates (see Methods, above) and the results are presented in the left and middle graphs in FIG. 3D (note the different vertical scales for PANC1 and AsPC1 plots).
# PANC1 cells [5] = assay: Glycogen content in PANC1 cells; type: cell-based, human; conditions: PANC1, CBS2, 3 hours
# Experimental: as §2
# C. Comparison of endogenous glycogen stores and their devimistat-induced depletion in PANC1 and AsPC1 cells. Cells were treated in CBS2 for 3 hours with 30 μM devimistat or mock treated (FIG. 2C, left), or treated for 3 hours with the indicated devimistat doses (FIG. 2C, right). Glycogen quantitation is described in Methods, above. ** indicates p<0.01. **** indicates p<0.0001.
# as §3
# AsPC1 xenograft = AsPC1 xenograft tumor growth, crizotinib and devimistat; type: in vivo, mice; conditions: crizotinib oral gavage, devimistat IP, MWF
# Experimental: Female, 6-week-old, CD1-nu/nu mice were inoculated with 2.5 million PANC-1 cell in 100 μL of HBSS or 5 million AsPC-1 cells in HBSS. Treatment commenced when tumors reached 100 mm^3 and lasted for the times indicated in the Examples and Figures. Mice were treated three times per week (MWF) with vehicle or drugs as indicated in the Examples and Figures. Tumors were measured once per week. […] Use of Matrigel for tumor inoculation was avoided in TGI experiments with this class of agents.
# D. Assessment of CRZ and/or devimistat effects on AsPC1 xenograft tumor growth in vivo. Tumors were inoculated subcutaneously on the flank and drug combinations indicated in FIG. 8C were administered intraperitoneally (devimistat) or by oral gavage (CRZ) three days per week (MWF). Tumor size was estimated by caliper assessment of tumor radius and calculation of volume (see Methods).
# AsPC1 cells [6] = assay: CO2 release from 14C-oleic acid in AsPC1 cells; type: cell-based, human; conditions: AsPC1, CBS2, 50 μM GPi, 40 μM oleic acid
# [7] = AsPC1, 50 μM GPi, 60 μM devimistat
Compound,"sensitization to devimistat-induced cell death, agent combined with devimistat (AsPC1 cells [2])",glycogen consumption (AsPC1 cells [4]),inhibition of oleic acid (OA)-driven acute ATP synthesis / OA rescue (AsPC1 cells [1]; [7]),OA rescue blockade (AsPC1 cells [1]; 60 μM devimistat),further results
"O=C(Cc1cccc(OC(F)(F)F)c1)Nc1ccc(CCCCc2nnc(NC(=O)Cc3ccccn3)s2)nn1 [CB-839, 2-(pyridin-2-yl)-N-(5-(4-(6-(2-(3-(trifluoromethoxy)phenyl)acetamido)pyridazin-3-yl)butyl)-1,3,4-thiadiazol-2-yl)acetamide]",modest effects on devimistat sensitivity,,,,"blockade of glutamine rescue from devimistat inhibition of ATP synthesis (AsPC1 cells [1]; AsPC1, 50 μM GPi, 60 μM devimistat, 2 mM glutamine, CB-839 0.2 μM, hexachlorophene 3 μM, 4.5 hours): blockade; sensitization to devimistat-induced cell death, agent combined with devimistat (PANC1 cells [3]): modest effects on devimistat sensitivity"
"CN(C)C(=O)[C@H](O)[C@H](Cc1ccccc1)NC(=O)c1cc2cc(Cl)ccc2[nH]1 [CP-91149, 5-chloro-N-[(1S,2R)-3-(dimethylamino)-2-hydroxy-3-oxo-1-(phenylmethyl)propyl]-1H-indole-2-carboxamide]",Synergy observed,reduces glycogen consumption,,,"sensitization to devimistat-induced cell death, agent combined with devimistat (PANC1 cells [3]): interacts more weakly with devimistat; glycogen consumption (PANC1 cells [5]): reduces glycogen consumption"
"C[C@@H](Oc1cc(-c2cnn(C3CCNCC3)c2)cnc1N)c1c(Cl)ccc(F)c1Cl [Crizotinib, (R)-3-[1-(2,6-Dichloro-3-fluorophenyl)ethoxy]-5-[1-(piperidin-4-yl)-1H-pyrazol-4-yl]pyridin-2-amine]",robustly sensitize,,robust inhibition,Yes,sensitization to devimistat tumor cell killing in vivo (AsPC1 xenograft): sensitizes to devimistat tumor cell killing in vitro and in vivo
CCOC(=O)[C@@]1(CCCCCCOc2ccc(Cl)cc2)CO1 [ETX],enhances devimistat effects,,strongly inhibited,,oleic acid beta-oxidation (CO2 release from oleate) (AsPC1 cells [6]): block oleic acid beta-oxidation
"COc1cc2c(Oc3ccc(NC(=O)C4(C(=O)Nc5ccc(F)cc5)CC4)cc3F)ccnc2cc1OCCCN1CCOCC1 [Foretinib, N1′-[3-fluoro-4-[[6-methoxy-7-(3-morpholinopropoxy)-4-quinolyl]oxy]phenyl]-N1-(4-fluorophenyl)cyclopropane-1,1-dicarboxamide]",robustly sensitize,,robust inhibition,Yes,Devimistat synergy (AsPC1 cells [2]): Yes
CNC(=O)c1c(F)cccc1Nc1nc(Nc2cc3c(cc2OC)CCN3C(=O)CN(C)C)nc2[nH]ccc12 [GSK1838705A],more limited sensitization,,little or no inhibition,No,Devimistat synergy (AsPC1 cells [2]): No
CCN(CCO)CCCC(C)Nc1ccnc2cc(Cl)ccc12 (stereo not shown) [HCQ],Synergy observed,significantly accelerates glycogen consumption,,,"sensitization to devimistat-induced cell death, agent combined with devimistat (PANC1 cells [3]): Synergy observed; glycogen consumption (PANC1 cells [5]): significantly accelerates glycogen consumption"
CSc1cccc(Nc2ncc3cc(-c4c(Cl)cccc4Cl)c(=O)n(C)c3n2)c1 [PD-173955],more limited sensitization,,little or no inhibition,No,Devimistat synergy (AsPC1 cells [2]): No
Oc1c(Cl)cc(Cl)c(Cl)c1Cc1c(O)c(Cl)cc(Cl)c1Cl [hexachlorophene],,,,,blockade of glutamine rescue from devimistat inhibition of ATP synthesis (AsPC1 cells [1]): blockade
CC[C@H]1/C=C/C=C/C[C@@H](C)[C@H](O)[C@@](C)(O)C(=O)[C@@H](C)[C@H](O)[C@@H](C)C(=O)[C@@H](C)[C@H](O)[C@@H](C)/C=C/C(=O)O[C@@H]2[C@H](C)[C@H](CC1)O[C@]1(CC[C@H](C)[C@H](C[C@@H](C)O)O1)[C@H]2C [oligomycin],,induce accelerated glycogen depletion,,,
[H]/N=C(/N)N/C(=N/[H])NCCc1ccccc1 [phenformin],sensitizes AsPC1 to devimistat,,,,
C=C(C)[C@H]1Cc2c(ccc3c2O[C@@H]2COc4cc(OC)c(OC)cc4[C@@H]2C3=O)O1 [rotenone],,induce accelerated glycogen depletion,,,
